This is an account of results in US10787462B2, “Heterocyclic compound” (TAKEDA PHARMACEUTICAL COMPANY LIMITED, priority 2015, dated 2020).

Molecules are shown by their SMILES.

One test has as its target T1, human RIPK1 (1-375) (Homo sapiens, UniProt Q13546).
T1 construct: human RIPK1 (1-375) gene; GST; made in house; host or cells: Sf-9 insect cells
T1 sequence (Q13546 1-375): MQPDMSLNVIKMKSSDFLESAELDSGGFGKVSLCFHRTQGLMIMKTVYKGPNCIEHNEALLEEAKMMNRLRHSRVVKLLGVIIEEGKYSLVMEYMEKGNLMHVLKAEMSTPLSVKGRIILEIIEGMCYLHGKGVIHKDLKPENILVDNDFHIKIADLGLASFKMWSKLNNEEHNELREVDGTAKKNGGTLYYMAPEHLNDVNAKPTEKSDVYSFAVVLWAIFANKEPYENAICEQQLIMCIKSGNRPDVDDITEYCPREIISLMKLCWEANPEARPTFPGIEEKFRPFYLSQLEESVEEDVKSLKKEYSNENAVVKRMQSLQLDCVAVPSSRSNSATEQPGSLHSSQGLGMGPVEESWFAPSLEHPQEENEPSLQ
The experiment in a line: Human RIPK1 enzyme inhibitory effect (ADP-Glo Kinase Assay). It counts as biochemical. The settings on record: 10 μM test compound; well without enzyme = 100% inhibition; 10 µM. An outline of the steps:
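ADP-Glo luminescence read-out of ADP formed over 120 min at room temperature after adding 0.6 mM ATP solution (stock concentration). Compound and Sf-9-expressed, GST-purified RIPK1 (1-375) were first incubated together for 20 min in HEPES pH 7.5 buffer with MgCl2, Tween-20 and DTT.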
Turning to `CN1C(=O)C(N2CCc3c(nn(Cc4ccccc4F)c3Cl)C2=O)CCc2nn(C)cc21` (stereo not drawn) [Example 120, 6-(3-chloro-2-(2-fluorobenzyl)-7-oxo-2,4,5,7-tetrahydro-6H-pyrazolo[3,4-c]pyridin-6-yl)-2,4-dimethyl-2,6,7,8-tetrahydropyrazolo[4,3-b]azepin-5(4H)-one], the “human RIPK1 enzyme inhibitory effect at 10 μM (% inhibition)” value turned out to be 95%.

With `CN1C(=O)C(N2CCc3c(nn(Cc4ccccc4)c3Cl)C2=O)CCc2cnccc21` (stereo not drawn) [Example 99, 3-(2-benzyl-3-chloro-7-oxo-2,4,5,7-tetrahydro-6H-pyrazolo[3,4-c]pyridin-6-yl)-1-methyl-1,3,4,5-tetrahydro-2H-pyrido[4,3-b]azepin-2-one], the “human RIPK1 enzyme inhibitory effect at 10 μM (% inhibition)” value is given as 98%.

In the case of `CN1C(=O)C(N2CCc3c(nn(Cc4ccccc4F)c3Cl)C2=O)CCc2nn(C)cc21` (stereo not drawn) [Example 121, 6-(3-chloro-2-(2-fluorobenzyl)-7-oxo-2,4,5,7-tetrahydro-6H-pyrazolo[3,4-c]pyridin-6-yl)-2,4-dimethyl-2,6,7,8-tetrahydropyrazolo[4,3-b]azepin-5(4H)-one], the “human RIPK1 enzyme inhibitory effect at 10 μM (% inhibition)” value was found to be 86%.

Staying with this test, now noted: read-out: human RIPK1 enzyme inhibitory effect at 10 μM (% inhibition), 10 μM test compound; well without enzyme = 100% inhibition.
As a reminder, the inhibition is the change of the read-out against control, counted positive when it falls. `Cc1c2c(nn1Cc1ccccc1)C(=O)N([C@H]1COc3ccc(C#N)cc3N(C)C1=O)CC2` [Example 85, (3S)-3-(2-benzyl-3-methyl-7-oxo-2,4,5,7-tetrahydro-6H-pyrazolo[3,4-c]pyridin-6-yl)-5-methyl-4-oxo-2,3,4,5-tetrahydro-1,5-benzoxazepine-7-carbonitrile]: the inhibition at 10 µM turned out to be 101%.

On to `CN1C(=O)[C@@H](N2CCc3cn(Cc4ccccc4)nc3C2=O)COc2ccc(Br)cc21` [Example 40, (3S)-3-(2-benzyl-7-oxo-2,4,5,7-tetrahydro-6H-pyrazolo[3,4-c]pyridin-6-yl)-7-bromo-5-methyl-2,3-dihydro-1,5-benzoxazepin-4(5H)-one], for which the inhibition at 10 µM came to 100%.

Turning to `CN1C(=O)[C@@H](N2CCc3cn(Cc4ccccc4)nc3C2=O)CSc2ccccc21` [Example 19, (3R)-3-(2-benzyl-7-oxo-2,4,5,7-tetrahydro-6H-pyrazolo[3,4-c]pyridin-6-yl)-5-methyl-2,3-dihydro-1,5-benzothiazepin-4(5H)-one], the inhibition at 10 µM was 99%.

Regarding `CN1C(=O)[C@@H](N2CCc3cn(Cc4ccc(C#N)cc4)nc3C2=O)COc2ccccc21` [Example 30, 4-((6-((3S)-5-methyl-4-oxo-2,3,4,5-tetrahydro-1,5-benzoxazepin-3-yl)-7-oxo-4,5,6,7-tetrahydro-2H-pyrazolo[3,4-c]pyridin-2-yl)methyl)benzonitrile], the inhibition at 10 µM stood at 97%. Consider `CN1C(=O)[C@@H](N2CCc3nn(Cc4ccccc4)cc3C2=O)COc2ccccc21` [Example 70, (3S)-3-(2-benzyl-4-oxo-2,4,6,7-tetrahydro-5H-pyrazolo[4,3-c]pyridin-5-yl)-5-methyl-2,3-dihydro-1,5-benzoxazepin-4(5H)-one], for which the inhibition at 10 µM came to 92%. On the same count and under the same terms, for `O=C1Nc2ccccc2CCC1N1Cc2cn(Cc3ccccc3)nc2C1=O` (stereo not drawn) [Example 4, 3-(2-benzyl-6-oxo-2,6-dihydropyrrolo[3,4-c]pyrazol-5(4H)-yl)-1,3,4,5-tetrahydro-2H-1-benzazepin-2-one] the value was 80%. As for `CNC(=O)c1ccc2c(c1)N(C)C(=O)[C@@H](N1CCc3c(nn(Cc4ccccc4)c3Cl)C1=O)CO2` [Example 89, (3S)-3-(2-benzyl-3-chloro-7-oxo-2,4,5,7-tetrahydro-6H-pyrazolo[3,4-c]pyridin-6-yl)-N,5-dimethyl-4-oxo-2,3,4,5-tetrahydro-1,5-benzoxazepine-7-carboxamide], the inhibition at 10 µM turned out to be 101%.

For `CN1C(=O)[C@@H](N2CCc3cn(Cc4cc(C#N)ccc4F)nc3C2=O)COc2ccccc21` [Example 172, 4-fluoro-3-((6-((3S)-5-methyl-4-oxo-2,3,4,5-tetrahydro-1,5-benzoxazepin-3-yl)-7-oxo-4,5,6,7-tetrahydro-2H-pyrazolo[3,4-c]pyridin-2-yl)methyl)benzonitrile], the inhibition at 10 µM came to 99%. The same measure, in the same setting: in the case of `CNC(=O)c1cc2c(cc1F)N(C)C(=O)[C@@H](N1CCc3c(nn(Cc4ccccc4)c3Cl)C1=O)CO2` [Example 122, (3S)-3-(2-benzyl-3-chloro-7-oxo-2,4,5,7-tetrahydro-6H-pyrazolo[3,4-c]pyridin-6-yl)-7-fluoro-N,5-dimethyl-4-oxo-2,3,4,5-tetrahydro-1,5-benzoxazepine-8-carboxamide] it was 101%; in that of `CN1C(=O)[C@@H](N2CCc3c(nn(Cc4ccccc4)c3Cl)C2=O)COc2ccc(C(N)=O)cc21` [Example 81, (3S)-3-(2-benzyl-3-chloro-7-oxo-2,4,5,7-tetrahydro-6H-pyrazolo[3,4-c]pyridin-6-yl)-5-methyl-4-oxo-2,3,4,5-tetrahydro-1,5-benzoxazepine-7-carboxamide], 101%; in that of `CN1C(=O)[C@@H](N2CCc3c(nn(Cc4ccccc4)c3Cl)C2=O)COc2cc(C3COC3)ccc21` [Example 59, (3S)-3-(2-benzyl-3-chloro-7-oxo-2,4,5,7-tetrahydro-6H-pyrazolo[3,4-c]pyridin-6-yl)-5-methyl-8-(oxetan-3-yl)-2,3-dihydro-1,5-benzoxazepin-4(5H)-one], 97%. For `CN1C(=O)C(N2CCc3c(nn(Cc4c(F)cccc4F)c3Cl)C2=O)CCc2c1cnn2C` (stereo not drawn) [Example 130, 6-(3-chloro-2-(2,6-difluorobenzyl)-7-oxo-2,4,5,7-tetrahydro-6H-pyrazolo[3,4-c]pyridin-6-yl)-1,4-dimethyl-4,6,7,8-tetrahydropyrazolo[4,3-b]azepin-5(1H)-one], the inhibition at 10 µM turned out to be 100%.

Consider `CN1C(=O)C(N2CCc3c(nn(Cc4ccccc4)c3Cl)C2=O)CCc2cnccc21` (stereo not drawn) [Example 98, 3-(2-benzyl-3-chloro-7-oxo-2,4,5,7-tetrahydro-6H-pyrazolo[3,4-c]pyridin-6-yl)-1-methyl-1,3,4,5-tetrahydro-2H-pyrido[4,3-b]azepin-2-one], for which the inhibition at 10 µM is 98%. Turning to `CNC(=O)c1ccc2c(c1)OC[C@H](N1CCc3c(nn(Cc4ccccc4F)c3Cl)C1=O)C(=O)N2C` [Example 47, (3S)-3-(3-chloro-2-(2-fluorobenzyl)-7-oxo-2,4,5,7-tetrahydro-6H-pyrazolo[3,4-c]pyridin-6-yl)-N,5-dimethyl-4-oxo-2,3,4,5-tetrahydro-1,5-benzoxazepine-8-carboxamide], the inhibition at 10 µM is 101%. Turning to `CN1C(=O)[C@@H](N2CCc3c(nn(Cc4ccccc4)c3C#N)C2=O)COc2ccccc21` [Example 12, 2-benzyl-6-((3S)-5-methyl-4-oxo-2,3,4,5-tetrahydro-1,5-benzoxazepin-3-yl)-7-oxo-4,5,6,7-tetrahydro-2H-pyrazolo[3,4-c]pyridine-3-carbonitrile], the inhibition at 10 µM worked out at 100%. Same read-out and setting: in the case of `CN1C(=O)[C@@H](N2CCc3cn(Cc4c(F)cccc4F)nc3C2=O)COc2ccccc21` [Example 24, (3S)-3-(2-(2,6-difluorobenzyl)-7-oxo-2,4,5,7-tetrahydro-6H-pyrazolo[3,4-]pyridin-6-yl)-5-methyl-2,3-dihydro-1,5-benzoxazepin-4(5H)-one] it was 101%. In the case of `CN1C(=O)[C@@H](N2CCc3c(nn(Cc4cnccn4)c3Cl)C2=O)COc2ccccc21` [Example 80, (3S)-3-(3-chloro-7-oxo-2-(pyrazin-2-ylmethyl)-2,4,5,7-tetrahydro-6H-pyrazolo[3,4-c]pyridin-6-yl)-5-methyl-2,3-dihydro-1,5-benzoxazepin-4(5H)-one], the inhibition at 10 µM was found to be 101%. For `CN1C(=O)[C@@H](N2CCc3c(nn(Cc4ccccc4)c3C(=O)O)C2=O)COc2ccccc21` [Example 53, 2-benzyl-6-((3S)-5-methyl-4-oxo-2,3,4,5-tetrahydro-1,5-benzoxazepin-3-yl)-7-oxo-4,5,6,7-tetrahydro-2H-pyrazolo[3,4-c]pyridine-3-carboxylic acid], the inhibition at 10 µM is 67%. Same read-out and setting: for `CN(C)C(=O)c1ccc2c(c1)N(C)C(=O)[C@@H](N1CCc3c(nn(Cc4ccccc4)c3Cl)C1=O)CO2` [Example 90, (3S)-3-(2-benzyl-3-chloro-7-oxo-2,4,5,7-tetrahydro-6H-pyrazolo[3,4-c]pyridin-6-yl)-N,N,5-trimethyl-4-oxo-2,3,4,5-tetrahydro-1,5-benzoxazepine-7-carboxamide] the value was 101%. Still for that read-out and setting: for `CN1C(=O)[C@@H](N2CCc3cn(Cc4ccccc4)nc3C2=O)COc2cc(C#N)ccc21` [Example 13, (3S)-3-(2-benzyl-7-oxo-2,4,5,7-tetrahydro-6H-pyrazolo[3,4-c]pyridin-6-yl)-5-methyl-4-oxo-2,3,4,5-tetrahydro-1,5-benzoxazepine-8-carbonitrile] the value was 99%. Turning to `CN1C(=O)[C@@H](N2CCc3c(nn(Cc4ccccc4)c3Cl)C2=O)COc2cc(-c3nccn3C)ccc21` [Example 60, (3S)-3-(2-benzyl-3-chloro-7-oxo-2,4,5,7-tetrahydro-6H-pyrazolo[3,4-c]pyridin-6-yl)-5-methyl-8-(1-methyl-1H-imidazol-2-yl)-2,3-dihydro-1,5-benzoxazepin-4(5H)-one], the inhibition at 10 µM was found to be 100%.
